Tests used:
[1] = system: Swiss Albino mice with induced infection (Staphylococcus aureus) and aseptic inflammation (turpentine); test: Biodistribution in mice with induced infection and aseptic inflammation; type: in vivo; conditions: for Urine radioactivity: per sample; for blood clearance / blood radioactivity course: within 120 min
Protocol: The in vivo behavior of HPLC purified technetium-99m complexes 1′–6′ was evaluated through biodistribution studies in Swiss Albino mice (40 ± 5 g) with induced infection and aseptic inflammation. The experiment was conducted in accordance with the guidelines for the protection of animals used for scientific purposes. Mice were divided into groups and prepared for biodistribution studies by inducing infection and aseptic inflammation. Twenty-four hours prior to the injection of the technetium complexes, the left thigh muscle of each mouse was inoculated with 50 µL of a Staphylococcus aureus suspension (1 × 10^6 CFU/mL) to induce infection. Aseptic inflammation was induced in the right thigh muscle by injecting 50 µL of turpentine oil. The technetium-99m complexes were administered intravenously via the tail vein. Each mouse received an injection of 0.037 MBq of the respective technetium-99m complex. The biodistribution was studied at two different time points, 15 min and 120 min post-injection. At each time point, the mice were sacrificed under anesthesia. Blood samples were obtained by cardiac puncture. The organs of interest were collected after dissection, including the liver, heart, kidneys, stomach, intestines, spleen, muscle (normal, infected, and inflamed), lungs, pancreas, and urinary bladder. The organs were made free from adhering tissues and transferred into pre-weighed counting vials. The radioactivity of the collected samples was measured using a shielded well-type gamma counter. The results were expressed as a percentage of injected dose per gram of tissue (% ID/g). The radioactivity ratios in infected muscle to normal muscle and inflamed muscle to normal muscle were calculated to assess the specificity and selectivity of the technetium complexes for infection and inflammation.

[2] = Lipophilicity: partition between n-octanol and PBS pH 7.4; type: physicochemical; conditions: n-octanol/PBS pH 7.4, M: 99mTc, three determinations
Protocol: The lipophilicity of HPLC purified technetium-99m complexes 1′–6′ was determined by measuring the partition coefficient (logD7.4) between n-octanol and phosphate-buffered saline (PBS, pH 7.4) based on established literature methods and is briefly described here. An aliquot of each technetium-99m complex was added to a mixture of equal volumes (2.0 mL each) of n-octanol and PBS (pH 7.4) in a 5 mL centrifuge tube. The mixture was vigorously vortexed for 2 min and then centrifuged at 5000 rpm for 5 min to ensure complete phase separation. After centrifugation, 0.1 mL aliquots from both the n-octanol and PBS phases were sampled and their radioactivity was measured using a gamma counter. The log P was calculated using the following equation: […]. The procedure was repeated three times for each complex to ensure reproducibility.

## O=C(O)c1cn(C2CC2)c2cc(N3CCN(C(=S)[S][99Tc])CC3)c(F)cc2c1=O.[C-]#[O+].[C-]#[O+].[C-]#[O+].c1ccc(P(c2ccccc2)c2ccccc2)cc1 [complex 2′, fac-[^99mTc(CO)3(Cip-DTC)(PPh3)]]
[1]; 15 min post i.v. injection
  Aseptic Infl. (turpentine inflamed muscle) radioactivity: 1.21 ± 0.07 %ID/g
  Blood radioactivity: 4.51 ± 1.32 %ID/g
  Heart radioactivity: 1.23 ± 0.36 %ID/g
  Infection (S. aureus infected muscle) radioactivity: 2.93 ± 0.09 %ID/g
  Intestines radioactivity: 0.14 ± 0.03 %ID/g
  Kidneys radioactivity: 1.30 ± 0.13 %ID/g
  Liver radioactivity: 32.36 ± 3.58 %ID/g
  Lungs radioactivity: 6.66 ± 1.45 %ID/g
  Muscle (normal) radioactivity: 0.90 ± 0.09 %ID/g
  Pancreas radioactivity: 0.47 ± 0.20 %ID/g
  Spleen radioactivity: 38.44 ± 3.92 %ID/g
  Stomach radioactivity: 0.55 ± 0.23 %ID/g
  aseptic inflammation/normal muscle ratio: 1.34
  infected/normal muscle ratio: 3.29
  Urine radioactivity: 3.95 ± 1.30 %ID
[1]; 120 min post i.v. injection
  Aseptic Infl. (turpentine inflamed muscle) radioactivity: 0.86 ± 0.10 %ID/g
  Blood radioactivity: 5.19 ± 0.81 %ID/g
  Heart radioactivity: 3.97 ± 0.25 %ID/g
  Infection (S. aureus infected muscle) radioactivity: 3.12 ± 0.14 %ID/g
  Intestines radioactivity: 1.08 ± 0.07 %ID/g
  Kidneys radioactivity: 6.50 ± 0.36 %ID/g
  Liver radioactivity: 27.16 ± 4.02 %ID/g
  Lungs radioactivity: 10.20 ± 0.12 %ID/g
  Muscle (normal) radioactivity: 0.68 ± 0.05 %ID/g
  Pancreas radioactivity: 1.04 ± 0.04 %ID/g
  Spleen radioactivity: 37.02 ± 4.43 %ID/g
  Stomach radioactivity: 1.23 ± 0.14 %ID/g
  aseptic inflammation/normal muscle ratio: 1.28
  infected/normal muscle ratio: 4.62
  Urine radioactivity: 4.04 ± 1.23 %ID
[1]
  blood clearance / blood radioactivity course: relatively stable
[2]
  LogD7.4: 2.3

## COc1ccc(P(c2ccc(OC)cc2)c2ccc(OC)cc2)cc1.O=C(O)c1cn(C2CC2)c2cc(N3CCN(C(=S)[S][99Tc])CC3)c(F)cc2c1=O.[C-]#[O+].[C-]#[O+].[C-]#[O+] [complex 3′, fac-[^99mTc(CO)3(Cip-DTC)(TMPP)]]
[1]; 15 min post i.v. injection
  Aseptic Infl. (turpentine inflamed muscle) radioactivity: 0.15 ± 0.07 %ID/g
  Blood radioactivity: 2.54 ± 0.25 %ID/g
  Heart radioactivity: 0.74 ± 0.32 %ID/g
  Infection (S. aureus infected muscle) radioactivity: 0.27 ± 0.11 %ID/g
  Intestines radioactivity: 0.36 ± 0.25 %ID/g
  Kidneys radioactivity: 1.40 ± 0.57 %ID/g
  Liver radioactivity: 47.48 ± 1.30 %ID/g
  Lungs radioactivity: 9.58 ± 0.86 %ID/g
  Pancreas radioactivity: 0.29 ± 0.13 %ID/g
  Spleen radioactivity: 33.88 ± 2.81 %ID/g
  Stomach radioactivity: 0.64 ± 0.61 %ID/g
  Urine radioactivity: 0.00 ± 0.00 %ID
[1]; 120 min post i.v. injection
  Aseptic Infl. (turpentine inflamed muscle) radioactivity: 0.52 ± 0.23 %ID/g
  Blood radioactivity: 6.71 ± 0.50 %ID/g
  Heart radioactivity: 3.48 ± 0.23 %ID/g
  Infection (S. aureus infected muscle) radioactivity: 1.14 ± 0.05 %ID/g
  Intestines radioactivity: 3.52 ± 0.19 %ID/g
  Kidneys radioactivity: 5.65 ± 0.78 %ID/g
  Liver radioactivity: 27.58 ± 0.66 %ID/g
  Lungs radioactivity: 8.67 ± 0.72 %ID/g
  Muscle (normal) radioactivity: 0.34 ± 0.02 %ID/g
  Pancreas radioactivity: 0.93 ± 0.20 %ID/g
  Spleen radioactivity: 23.10 ± 1.74 %ID/g
  Stomach radioactivity: 1.21 ± 0.32 %ID/g
  aseptic inflammation/normal muscle ratio: 1.51
  infected/normal muscle ratio: 3.32
  Urine radioactivity: 0.01 ± 0.02 %ID
[1]
  blood clearance / blood radioactivity course: increasing
[2]
  LogD7.4: 2.7

## CP(c1ccccc1)c1ccccc1.O=C(O)c1cn(C2CC2)c2cc(N3CCN(C(=S)[S][99Tc])CC3)c(F)cc2c1=O.[C-]#[O+].[C-]#[O+].[C-]#[O+] [complex 4′, fac-[M(CO)3(Cip-DTC)(MePPh2)]]
[1]; 15 min post i.v. injection
  Aseptic Infl. (turpentine inflamed muscle) radioactivity: 0.77 ± 0.12 %ID/g
  Blood radioactivity: 3.20 ± 0.47 %ID/g
  Heart radioactivity: 4.36 ± 0.46 %ID/g
  Infection (S. aureus infected muscle) radioactivity: 0.88 ± 0.15 %ID/g
  Intestines radioactivity: 1.27 ± 0.16 %ID/g
  Kidneys radioactivity: 5.92 ± 0.60 %ID/g
  Liver radioactivity: 42.11 ± 1.70 %ID/g
  Lungs radioactivity: 11.15 ± 0.19 %ID/g
  Muscle (normal) radioactivity: 0.56 ± 0.07 %ID/g
  Pancreas radioactivity: 1.38 ± 0.21 %ID/g
  Spleen radioactivity: 21.59 ± 0.98 %ID/g
  Stomach radioactivity: 1.11 ± 0.50 %ID/g
  Urine radioactivity: 0.01 ± 0.00 %ID
[1]; 120 min post i.v. injection
  Aseptic Infl. (turpentine inflamed muscle) radioactivity: 1.88 ± 0.26 %ID/g
  Blood radioactivity: 1.48 ± 0.11 %ID/g
  Heart radioactivity: 8.85 ± 0.63 %ID/g
  Infection (S. aureus infected muscle) radioactivity: 2.83 ± 0.30 %ID/g
  Intestines radioactivity: 7.97 ± 0.12 %ID/g
  Kidneys radioactivity: 11.10 ± 0.70 %ID/g
  Liver radioactivity: 31.09 ± 0.72 %ID/g
  Lungs radioactivity: 9.41 ± 1.15 %ID/g
  Pancreas radioactivity: 3.21 ± 0.28 %ID/g
  Spleen radioactivity: 8.14 ± 0.93 %ID/g
  Stomach radioactivity: 2.23 ± 0.37 %ID/g
  Urine radioactivity: 0.04 ± 0.03 %ID
[2]
  LogD7.4: 1.8

From article PMC11435093, “Synthesis and Evaluation of ^99mTc(CO)3 Complexes with Ciprofloxacin Dithiocarbamate for Infection Imaging” (Pharmaceutics, 2024)
